Measured values reported in ChEMBL document CHEMBL4387735, “Chemically synthesized LYRM03 could inhibit the metastasis of human breast cancer MDA-MB-231 cells in vitro and in vivo” (Bioorg Med Chem Lett, 2019).
Active and inactive are the calls of the source. The rule behind the calls is not given here.

Experiments:
MDA-MB-231 [1] = experiment: Cytotoxicity against human MDA-MB-231 cells assessed as reduction in cell viability at 100 ug/ml incubated for 48 hrs by MTT assay; format: cell-based; settings: mda-mb-231, 48 h
MDA-MB-231 [2] = experiment: Antimetastatic activity against human MDA-MB-231 cells xenografted in SCID mouse assessed as reduction in metastasis foci formation in lungs at 100 mg/kg, ip administered 3 times per week by hematoxylin-eosin staining based assay; format: functional, organism-based
[3] = molecular target: Aminopeptidase N (Homo sapiens) (UniProt P15144); settings: MDA-MB-231, 50 ug/ml
Aminopeptidase N (Homo sapiens), sequence (P15144 whole entry): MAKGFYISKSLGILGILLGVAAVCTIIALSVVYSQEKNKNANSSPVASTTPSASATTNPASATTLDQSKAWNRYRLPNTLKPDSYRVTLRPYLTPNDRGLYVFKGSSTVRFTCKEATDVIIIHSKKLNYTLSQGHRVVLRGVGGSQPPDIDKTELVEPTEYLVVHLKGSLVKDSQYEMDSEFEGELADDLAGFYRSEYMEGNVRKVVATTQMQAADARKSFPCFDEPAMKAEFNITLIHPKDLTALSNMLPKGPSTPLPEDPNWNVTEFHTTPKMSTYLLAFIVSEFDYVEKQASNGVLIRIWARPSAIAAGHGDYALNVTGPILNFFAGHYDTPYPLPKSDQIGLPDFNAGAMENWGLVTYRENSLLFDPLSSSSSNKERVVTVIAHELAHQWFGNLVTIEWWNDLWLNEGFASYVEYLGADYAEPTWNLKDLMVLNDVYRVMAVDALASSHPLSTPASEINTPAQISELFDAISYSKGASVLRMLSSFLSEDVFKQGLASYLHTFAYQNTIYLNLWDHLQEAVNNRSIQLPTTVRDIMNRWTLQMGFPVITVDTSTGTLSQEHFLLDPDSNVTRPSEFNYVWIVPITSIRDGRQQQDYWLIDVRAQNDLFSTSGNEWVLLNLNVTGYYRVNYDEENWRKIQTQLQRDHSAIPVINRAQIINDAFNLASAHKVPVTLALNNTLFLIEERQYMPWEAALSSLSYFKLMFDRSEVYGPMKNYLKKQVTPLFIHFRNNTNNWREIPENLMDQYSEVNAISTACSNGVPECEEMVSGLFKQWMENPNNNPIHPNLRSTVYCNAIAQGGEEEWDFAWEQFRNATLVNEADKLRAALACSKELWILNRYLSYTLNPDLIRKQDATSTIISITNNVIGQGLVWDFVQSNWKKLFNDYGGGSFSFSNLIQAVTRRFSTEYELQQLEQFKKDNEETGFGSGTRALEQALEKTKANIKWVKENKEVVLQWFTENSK
Description: Inhibition of human APN in MDA-MB-231 cells at 50 ug/ml using L-leucine-p-nitroanilide as a substrate incubated for 1 hr by spectrophotometric method relative to control

MDA-MB-231 [4] = experiment: Induction of apoptosis in human MDA-MB-231 cells assessed as early apoptotic cells at 50 ug/ml by Annexin V/PI staining based flow cytometric method (reference value: 0.54%); format: functional
MDA-MB-231 [5] = experiment: Induction of apoptosis in human MDA-MB-231 cells assessed as live cells at 50 ug/ml by Annexin V/PI staining based flow cytometric method (reference value: 90.75%); format: functional
MDA-MB-231 [6] = experiment: Cytotoxicity against human MDA-MB-231 cells assessed as reduction in cell viability at 100 ug/ml incubated for 24 to 48 hrs by MTT assay relative to control; format: cell-based
[7] = molecular target: Aminopeptidase N (Homo sapiens) (UniProt P15144); experiment: Inhibition of human APN in MDA-MB-231 cells at >50 ug/ml using L-leucine-p-nitroanilide as a substrate incubated for 1 hr by spectrophotometric method relative to control; format: cell-based
MDA-MB-231 [8] = experiment: Effect on APN protein expression in human MDA-MB-231 cells at 10 to 100 ug/ml by Western blot analysis; format: functional, cell-based
MDA-MB-231 [9] = experiment: Induction of apoptosis in human MDA-MB-231 cells assessed as late apoptotic cells at 50 ug/ml by Annexin V/PI staining based flow cytometric method (reference value: 0.92%); format: functional
MDA-MB-231 [10] = experiment: Induction of apoptosis in human MDA-MB-231 cells assessed as necrotic cells at 50 ug/ml by Annexin V/PI staining based flow cytometric method (reference value: 7.79%); format: functional
MDA-MB-231 [11] = experiment: Induction of apoptosis in human MDA-MB-231 cells assessed as live cells at 100 ug/ml by Annexin V/PI staining based flow cytometric method (reference value: 90.75%); format: functional
MDA-MB-231 [12] = experiment: Induction of apoptosis in human MDA-MB-231 cells assessed as early apoptotic cells at 100 ug/ml by Annexin V/PI staining based flow cytometric method (reference value: 0.54%); format: functional
MDA-MB-231 [13] = experiment: Induction of apoptosis in human MDA-MB-231 cells assessed as late apoptotic cells at 100 ug/ml by Annexin V/PI staining based flow cytometric method (reference value: 0.92%); format: functional
MDA-MB-231 [14] = experiment: Induction of apoptosis in human MDA-MB-231 cells assessed as necrotic cells at 100 ug/ml by Annexin V/PI staining based flow cytometric method (reference value: 7.79%); format: functional
MDA-MB-231 [15] = experiment: Inhibition of colony formation in human MDA-MB-231 cells at 50 to 100 ug/ml incubated for 10 days; format: functional, cell-based
MDA-MB-231 [16] = experiment: Inhibition of cell migration in human MDA-MB-231 cells incubated upto to 24 hrs by wound healing assay; format: functional, cell-based
MDA-MB-231 [17] = experiment: Antimigratory activity in human MDA-MB-231 cells assessed as induction of slow cell migration at 100 ug/ml incubated up to 24 hrs by wound healing assay; format: functional, cell-based
MDA-MB-231 [18] = experiment: Antimetastatic activity in human MDA-MB-231 cells assessed as reduction in cell migration at 50 to 100 ug/ml incubated for 24 hrs by transwell assay; format: functional, cell-based
MDA-MB-231 [19] = experiment: Effect on MMP2 protein expression in human MDA-MB-231 cells; format: functional, cell-based
MDA-MB-231 [20] = experiment: Effect on MMP7 protein expression in human MDA-MB-231 cells; format: functional, cell-based
MDA-MB-231 [21] = experiment: Effect on MMP9 protein expression in human MDA-MB-231 cells; format: functional, cell-based
MDA-MB-231 [22] = experiment: Induction of apoptosis in human MDA-MB-231 cells assessed as induction of PARP cleavage at 10 to 100 ug/ml 6 to 48 hrs by Western blot analysis; format: functional, cell-based
MDA-MB-231 [23] = experiment: Inhibition of cell migration in human MDA-MB-231 cells assessed as scratch healing at 10 to 100 ug/ml incubated for 24 hrs by wound healing assay; format: functional; set-up: scale not given: the % may be the effect or the level left

For `CC(C)C[C@H](NC(=O)[C@@H](O)[C@H](N)Cc1ccccc1)C(=O)O` [UBENIMEX], the Activity (MDA-MB-231 [1]) was “Toxic”, the Activity (MDA-MB-231 [2]) was “Active” and the inhibition [3] was “Active”.
With `CC[C@H](C)[C@H](NC(=O)[C@@H](NC(=O)[C@@H](O)[C@H](N)Cc1ccccc1)C(C)C)C(=O)O` the Activity (MDA-MB-231 [4]) was 0.73%, the Activity (MDA-MB-231 [5]) was 89.98% and the Activity (MDA-MB-231 [6]) was “<= 20%”. The inhibition [7] was over 50%, the Activity (MDA-MB-231 [8]) was “inactive” and the Activity (MDA-MB-231 [9]) was 0.77%. It also gave an Activity (MDA-MB-231 [10]) of 8.51%, an Activity (MDA-MB-231 [11]) of 89.5% and an Activity (MDA-MB-231 [12]) of 0.71%. The Activity (MDA-MB-231 [13]) was 0.75%, the Activity (MDA-MB-231 [14]) was 9.05% and the inhibition (MDA-MB-231 [15]) was “Active”. The inhibition (MDA-MB-231 [16]) was “Dose-dependent effect”, the Activity (MDA-MB-231 [17]) was “Active” and the Activity (MDA-MB-231 [18]) was “Active”. For the same molecule, the Activity (MDA-MB-231 [2]) was “Active”, the Activity (MDA-MB-231 [19]) was “inactive” and the Activity (MDA-MB-231 [20]) was “inactive”. For the same molecule, the Activity (MDA-MB-231 [21]) was “inactive”, the Activity (MDA-MB-231 [22]) was “inactive” and the Activity (MDA-MB-231 [23]) was 50%.
